Data as given in US20160193179A1, “Treatment of Cardiovascular Risk in Diabetic Patients” (EVOLVA SA, priority 2012, published 2016).

Key:
[1] = Bioavailability (statement); conditions: in vivo
[2] = tested on: platelet aggregation in PRP of type-2 diabetic patients; test: Platelet aggregation in citrate-anticoagulated PRP, light transmission aggregometry (LTA); assay type: cell-based, human; conditions: for ADP 5 late platelet aggregation (mean ± SD) / ADP 5 max platelet aggregation (mean ± SD): ADP 5 μM; for ADP 5 late platelet aggregation (mean ± SD) / ADP 20 late platelet aggregation (mean ± SD) / U-46619 late platelet aggregation (mean ± SD) / AA late platelet aggregation (mean ± SD) / COLL late platelet aggregation (mean ± SD): late aggregation at 6 minutes; for ADP 5 late platelet aggregation (mean ± SD) / ADP 5 max platelet aggregation (mean ± SD) / ADP 20 late platelet aggregation (mean ± SD) / ADP 20 max platelet aggregation (mean ± SD) / U-46619 late platelet aggregation (mean ± SD) / U-46619 max platelet aggregation (mean ± SD) / AA late platelet aggregation (mean ± SD) / COLL late platelet aggregation (mean ± SD) / COLL max platelet aggregation (mean ± SD): PRP ± 100 nM Compound 3 in vitro; for ADP 5 max platelet aggregation (mean ± SD) / ADP 20 max platelet aggregation (mean ± SD) / U-46619 max platelet aggregation (mean ± SD) / AA max platelet aggregation (mean ± SD) / COLL max platelet aggregation (mean ± SD): maximal aggregation; for ADP 20 late platelet aggregation (mean ± SD) / ADP 20 max platelet aggregation (mean ± SD): ADP 20 μM; for U-46619 late platelet aggregation (mean ± SD) / U-46619 max platelet aggregation (mean ± SD): U-46619 7 uM; for AA late platelet aggregation (mean ± SD) / AA max platelet aggregation (mean ± SD): arachidonic acid 1 mM; for AA max platelet aggregation (mean ± SD): PRP ± 100 nM Compound 3 in vitro 10 min 37°C; for COLL late platelet aggregation (mean ± SD) / COLL max platelet aggregation (mean ± SD): collagen 3 ug/ml
Procedure: Patient population: Ten patients affected by type-2 diabetes mellitus and CAD (coronary artery disease), on chronic daily treatment with 81 mg aspirin (enteric coated acetylsalicylic acid, Cardioaspirin, Bayer, Germany) are switched to clopidogrel (75 mg/day) monotherapy for 7-10 days prior to study. Pharmacodynamic assessments are performed while on aspirin (81 mg) monotherapy and clopidogrel (75 mg) monotherapy.
Blood sampling with 19-gauge needle or larger without the use of tourniquet. The first two ml of blood sampled was discarded. The venous blood samples are drawn into tri-sodium citrate filled tubes (BD Vacutainer 0.109 M. Ref. 363048) for the LTA. All tri-sodium citrate used to anticoagulate a blood sample remains in the plasma phase since it was not taken up by platelets, erythrocytes and leukocytes. Citrate plasma concentration and the resulting free plasma Ca2+ needed for platelet aggregation is directly determined by the individual haematocrit.
Platelet-rich plasma (PRP) is prepared by centrifugation at 120×g for 10 min at room temperature. Autologous platelet-poor plasma (PPP) is prepared by centrifugation at 2300×g for 15 min at room temperature. The PRP platelet count is adjusted to 250.000/ul by the autologous PPP. Stability for the platelet aggregation test is 2 hours at room temperature. Platelet aggregation is performed using LTA [2-5]. Blood is collected in citrated tubes. Citrate concentrations are adjusted according to the individual haematocrit levels according to prior LTA studies using Evolva compound. LTA is assessed using PRP by the turbidimetric method in a 2-channel aggregometer (Chrono-Log 490 Model, Chrono-Log Corp., Havertown) according to the instructions of the manufacturer. Light transmission is adjusted to 0% with the PRP and to 100% for the PPP for each measurement. Curves are recorded for 6 minutes. Platelet aggregation is determined as the maximal percent change in light transmittance from baseline using PPP as a reference as well as late platelet aggregation at 6 minutes. Platelet agonists include U-46619 (7 uM), arachidonic acid (1 mM), collagen (3 ug/ml) and ADP (20 μM and 5 μM). Pharmacodynamic testing is performed following 10 min in vitro incubation at 37° C. of PRP with 100 nM Compound 3 and without 100 nM Compound 3 (placebo).
Total of 10 LTA analysis per patient at each time point; total 2 time points=20 assessments. Table 1 and FIG. 6B compare aspirin vs. aspirin+Compound 3, Table 2 and FIG. 7A compare clopidogrel vs. clopidigrel+Comppound 3, and Table 3 and FIG. 7B compare aspirin+Compound 3 vs. clopidogrel+Comound 3.

[3] = tested on: human coronary artery smooth muscle cells; test: Human coronary artery smooth muscle cell proliferation (WST-1); assay type: cell-based
Procedure: Human coronary artery SMC is cultured in SmGM2 kit medium. At 80% confluence, the SMCs are trypsinized and resuspended in either DMEM supplemented with 2% FCS (“low serum media”), or in SmGM2 kit medium containing 5% FCS, 2 ng/ml FGF, 0.5 ng/ml EGF, 5 μg/ml insulin (“growth factor media”). Subsequently, 5000 cells in 200 μL are added to each well in a 96-well plate and left to adhere overnight. Either vehicle or Compound 3 (50 nM, 500 nM, 5 μM) is added to the wells 1 h before U 46619 at different concentrations (0.1 nM to 10 μM) and incubated for another 48 h. All experiments are repeated 3-5 times for each experimental condition.
Cell proliferation is evaluated using WST-1 reagent according to the manufacturer's instructions. In brief, after replacement of phenol red containing media by 200 μL transparent serum-supplemented DMEM, 10 μL of diluted WST-1 reagent is added to each well at the end of the 48 h incubation period. After 1 h incubation at 37° C., the absorbance of the formazan dye formed is measured at 440 nm using a microplate reader.
All results are expressed as mean±SE. Statistically significant differences are determined by a one-way analysis of variances, followed by Holm-Sidak post hoc test, for multiple comparisons, using Sigma Stat software. A P value of less than 0.05 is considered significant.

Compound	solubility (Solubility (statement))	bioavailability [1]	ADP 5 late platelet aggregation (mean ± SD) [2]	ADP 5 max platelet aggregation (mean ± SD) [2]	ADP 20 late platelet aggregation (mean ± SD) [2]	ADP 20 max platelet aggregation (mean ± SD) [2]	U-46619 late platelet aggregation (mean ± SD) [2]	U-46619 max platelet aggregation (mean ± SD) [2]	AA late platelet aggregation (mean ± SD) [2]	AA max platelet aggregation (mean ± SD) [2]	COLL late platelet aggregation (mean ± SD) [2]	COLL max platelet aggregation (mean ± SD) [2]	concentration of maximal response (cell number, WST-1) ([3]; growth factor media)	cell number assessed by WST-1 ([3]; growth factor media, U46619 0.1 nM to 10 μM, 48 h)	absorbance vs. vehicle-treated cells (WST-1) ([3]; growth factor media, U46619 at 0.1 μM and higher)	SMC proliferation ([3]; low serum media (2% FCS))
O=C(O)CC/C=C\C[C@@H]1CO[C@H](c2ccccc2Cl)O[C@@H]1c1ccccc1O (single isomer, unassigned) [Compound 2]	poor solubility	poor														
CC(=O)Oc1ccccc1C(=O)O [ASA, acetylsalicylic acid]			46.3 ± 15%	52.6 ± 12%	72 ± 6%	74.3 ± 6%	74.9 ± 4.6%	77 ± 5.2%	8.5 ± 23%	9.4 ± 22.7%	59.6 ± 17.2%	61.4 ± 17.6%				
COC(=O)[C@H](c1ccccc1Cl)N1CCc2sccc2C1 [CLOP, clopidogrel]			19.7 ± 21.9%	32.8 ± 17.2%	44.6 ± 18.9%	54.8 ± 13.3%	68.8 ± 13.8%	71.6 ± 11.6%	47.6 ± 28.2%	49.7 ± 28.2%	70.5 ± 10.5%	72.6 ± 10.2%				
CCCCC[C@H](O)/C=C/[C@@H]1[C@@H](C/C=C\CCCC(=O)O)[C@H]2CO[C@@H]1C2 [Compound U46619]													1 nM	bell-shaped concentration-dependent increase	does not significantly differ	did not significantly alter
